# Test results reported in patent US20200237871A1, “METHODS FOR MITIGATING LIVER INJURY AND PROMOTING LIVER HYPERTROPHY, REGENERATION AND CELL ENGRAFTMENT IN CONJUNCTION WITH RADIATION AND/OR RADIOMIMETIC TREATMENTS” (Janssen Pharmaceutica NV, priority 2019, published 2020).
# Tests used:
# DPPIV−/− knockout mice = experiment: LSEC engraftment/repopulation of irradiated liver by DPPIV staining (Examples 2 and 3); assay type: in vivo, mouse; conditions: targeted liver irradiation (50 Gy)
# Experimental: 8-12-week-old male and female Di-peptyl peptidase IV (DPPIV) −/− knockout mice and 8-12-week-old male and female C57Bl6 mice were used in this study. Animals were weighed in the beginning of the experiment and before tissue collection. All animals were housed in the Institute for Animal Studies at Albert Einstein College of medicine and fed regular rodent chow. All experiments were performed to according to protocols approved by Institutional Animal Care and Use Committee at Albert Einstein College of Medicine. Animals were made cirrhotic using CCl4 administration (intraperitoneal [IP] injections twice a week for at least 11 weeks).
# Image-guided external beam irradiation was performed using a small animal radiation research platform (SARRP, Xstrahl Inc., Suwanee, Ga.). Mice were given gastrografin contrast through gavage to improve visualization of the gastrointestinal (GI) tract. After approximately 2 minutes, mice were positioned on a tubular couch and anesthetized with ˜2% Isofluorane (Isothesia, USP) in 2 L/min pure oxygen. A cone-beam computed tomography (CBCT) scan was acquired and a treatment plan irradiating the median lobe and right lobe was generated using the MuriPlan software. […] Within the targeted lobes, the position of the isocenter was chosen to minimize irradiation of the GI tract, spine, and heart (the maximum dose to these organs was kept below 10 Gy). Targets were irradiated with 50 Gy X-rays at 220 kVp energy and 13 mA tube current (dose rate of 2.4-2.5 Gy/min) using a 1 mm copper filter for beam hardening.
# TPOm was diluted in sterile PBS to a 10 mg/ml stock. The stock was stored at −20° C. and allowed to come to room temperature prior to administration. TPOm was administered as a single dose (300 μg/kg) via subcutaneous injection 10 minutes after the transplant procedure.
# DPPIV was selected as a marker for engraftment of exogenous LSECs in the DPPIV (−/−) animals. […] Slide imaging was done using a Perkin Elmer P250 High Capacity Slide Scanner.
# LSECs were isolated from the single-cell suspension using CD146 microbeads (Miltenyi Biotec GmbH #130-092-007).
# Following isolation of LSECs, 500×10^5 LSECs are transplanted via intrasplenic injection into healthy adult mice anesthetized with Isoflurane (Isothesia, USP) 24 hrs post HIR. Buprenorphine is given post-op as an analgesic.
# To test the efficacy of TPOm as an agent that can cause LSEC engraftment, DPPIV−/− knockout mice received 50GY hepatic irradiation (HIR) to the median and right lobes of the liver using external-beam CT-guided x-ray irradiation, and LSECs that express DPPIV (FIG. 2A).
# The methods were identical to those described above with the exception that the LSEC transplant was administered 4-5 days post irradiation and the TPOm or Romiplostim were administered approximately 10 minutes post LSEC transplant.
# DPPIV KO mice = experiment: Engraftment of transplanted LSECs and hepatocytes by DPPIV immunostaining after HIR (Example 7); assay type: in vivo, mouse; conditions: Study A; 2 months after HIR; 50 Gy; LSECs 4 or 5 days after HIR; 300 μg/kg intraperitoneally 10 minutes after LSEC transplantation
# Experimental: 8-12-week-old male Di-peptyl peptidase IV knockout (Dppiv^−/−) mice and 8-12-week-old male C57BL/6 mice were used in this study.
# The methods were identical to Experiment 5 as described above; including the preparation of test articles (solutions of RWJ-800088), isolation and transplant of LSECs, and Hepatic irradiation. In addition, Romiplostim was purchased from pharmacy and came in 250 μg powder. It was reconstituted per manufacturers description using solvent for solution for injection. After reconstitution, a deliverable volume of 0.5 mL solution contained 250 μg of romiplostim (500 μg/mL).
# Animals were weighed in the beginning of the experiment.
# The mice were transplanted with DPPIV^+ 5×10^5 liver sinusoidal endothelial cells (LSECs) intrasplenically 4 or 5 days later. The mice were then injected with 300 μg/kg of RWJ-800088 or Romiplostim intraperitoneally 10 minutes after LSEC transplantation as shown in Table 7.
# The mice were then monitored until they made a full recovery and returned to the cage. The mice were followed for 2 and 5 months and necropsied. The liver was excised and prepared for the frozen section. The immunostaining of DPPIV activity was performed to examine the repopulation of the transplanted DPPIV^+ cells in the liver. […]
substance,measurement,setting,value
romiplostim [reference compound],Engraftment when LSEC transplant is administered 24 hours post irradiation,DPPIV−/− knockout mice,Yes
same,Engraftment when LSEC transplant is administered 4-5 days post irradiation,DPPIV−/− knockout mice; drug approximately 10 minutes post LSEC transplant,Yes
same,repopulation of LSECs in the irradiated liver tissue (DPPIV immunostaining),DPPIV KO mice,repopulation of LSECs in the irradiated liver tissue was observed
